Data from ChEMBL document CHEMBL1909046, “DrugMatrix in vitro pharmacology data”.

Assays:
[1] = biological target: T1, Cysteinyl leukotriene receptor 1 (Homo sapiens, UniProt Q9Y271); format: cell membranes, CHO-K1, Membrane; conditions: cho-k1; further: in other assays of this panel Not Active means under 50% inhibition at 10 µM
T1 sequence (Q9Y271 whole entry): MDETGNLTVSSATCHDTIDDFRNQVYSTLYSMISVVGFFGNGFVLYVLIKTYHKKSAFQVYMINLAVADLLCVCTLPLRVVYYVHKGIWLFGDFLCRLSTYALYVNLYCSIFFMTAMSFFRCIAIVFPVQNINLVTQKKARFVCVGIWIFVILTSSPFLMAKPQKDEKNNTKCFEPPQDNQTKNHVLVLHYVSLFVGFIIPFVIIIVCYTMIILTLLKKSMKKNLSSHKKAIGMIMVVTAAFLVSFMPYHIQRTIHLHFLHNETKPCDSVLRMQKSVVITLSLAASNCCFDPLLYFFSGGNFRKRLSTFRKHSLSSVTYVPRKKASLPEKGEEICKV

[2] = biological target: Matrix metalloproteinase-9 (Homo sapiens, UniProt P14780); experiment: biochemical; format: cell-based;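 further: inhibition of isolated MMP-9 enzyme activity toward a synthetic peptide substrate, from the DrugMatrix protease screening panel; in other assays of this panel Not Active means under 50% inhibition at 10 µM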
Chain of Matrix metalloproteinase-9 (P14780 whole entry): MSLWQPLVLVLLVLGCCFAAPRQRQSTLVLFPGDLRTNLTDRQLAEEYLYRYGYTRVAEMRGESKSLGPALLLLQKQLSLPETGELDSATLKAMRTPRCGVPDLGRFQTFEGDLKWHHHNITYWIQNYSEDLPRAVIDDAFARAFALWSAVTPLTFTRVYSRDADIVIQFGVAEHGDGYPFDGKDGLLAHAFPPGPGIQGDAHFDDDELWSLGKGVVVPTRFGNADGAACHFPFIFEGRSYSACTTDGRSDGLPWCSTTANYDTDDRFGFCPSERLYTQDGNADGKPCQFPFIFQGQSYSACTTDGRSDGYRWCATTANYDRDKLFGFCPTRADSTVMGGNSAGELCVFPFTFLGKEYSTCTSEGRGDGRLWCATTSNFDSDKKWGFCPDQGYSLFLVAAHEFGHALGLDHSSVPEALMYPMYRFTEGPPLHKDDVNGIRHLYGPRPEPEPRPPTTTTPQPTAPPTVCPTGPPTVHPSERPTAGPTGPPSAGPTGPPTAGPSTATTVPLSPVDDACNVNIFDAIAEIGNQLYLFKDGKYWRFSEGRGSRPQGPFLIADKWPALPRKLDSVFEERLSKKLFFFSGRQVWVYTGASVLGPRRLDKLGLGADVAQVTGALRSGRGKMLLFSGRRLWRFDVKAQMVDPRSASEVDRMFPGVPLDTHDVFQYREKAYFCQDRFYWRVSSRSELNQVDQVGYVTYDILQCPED

Estrogen receptor beta = Estrogen receptor beta (Homo sapiens, UniProt Q92731); conditions: sf9; further: in other assays of this panel Not Active means under 50% inhibition at 10 µM
Chain of Estrogen receptor beta (Q92731 whole entry): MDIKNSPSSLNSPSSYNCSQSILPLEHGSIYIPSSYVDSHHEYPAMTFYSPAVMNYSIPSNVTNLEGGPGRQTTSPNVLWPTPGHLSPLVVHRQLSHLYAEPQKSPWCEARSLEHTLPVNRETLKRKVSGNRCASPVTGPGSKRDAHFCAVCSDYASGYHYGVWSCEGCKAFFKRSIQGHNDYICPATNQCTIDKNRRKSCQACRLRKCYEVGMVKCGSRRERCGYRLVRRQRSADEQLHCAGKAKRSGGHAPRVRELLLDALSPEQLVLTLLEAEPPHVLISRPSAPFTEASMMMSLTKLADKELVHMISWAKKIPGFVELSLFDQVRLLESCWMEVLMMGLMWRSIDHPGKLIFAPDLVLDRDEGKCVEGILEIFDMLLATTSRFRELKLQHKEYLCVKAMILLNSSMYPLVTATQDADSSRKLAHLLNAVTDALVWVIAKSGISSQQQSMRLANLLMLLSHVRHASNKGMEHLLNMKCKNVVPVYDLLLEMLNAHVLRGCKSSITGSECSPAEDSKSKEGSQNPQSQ

[3] = biological target: Voltage-gated inwardly rectifying potassium channel KCNH2 (Homo sapiens, UniProt Q12809); conditions: hek293; further: in other assays of this panel Not Active means under 50% inhibition at 10 µM
Chain of Voltage-gated inwardly rectifying potassium channel KCNH2 (Q12809 whole entry): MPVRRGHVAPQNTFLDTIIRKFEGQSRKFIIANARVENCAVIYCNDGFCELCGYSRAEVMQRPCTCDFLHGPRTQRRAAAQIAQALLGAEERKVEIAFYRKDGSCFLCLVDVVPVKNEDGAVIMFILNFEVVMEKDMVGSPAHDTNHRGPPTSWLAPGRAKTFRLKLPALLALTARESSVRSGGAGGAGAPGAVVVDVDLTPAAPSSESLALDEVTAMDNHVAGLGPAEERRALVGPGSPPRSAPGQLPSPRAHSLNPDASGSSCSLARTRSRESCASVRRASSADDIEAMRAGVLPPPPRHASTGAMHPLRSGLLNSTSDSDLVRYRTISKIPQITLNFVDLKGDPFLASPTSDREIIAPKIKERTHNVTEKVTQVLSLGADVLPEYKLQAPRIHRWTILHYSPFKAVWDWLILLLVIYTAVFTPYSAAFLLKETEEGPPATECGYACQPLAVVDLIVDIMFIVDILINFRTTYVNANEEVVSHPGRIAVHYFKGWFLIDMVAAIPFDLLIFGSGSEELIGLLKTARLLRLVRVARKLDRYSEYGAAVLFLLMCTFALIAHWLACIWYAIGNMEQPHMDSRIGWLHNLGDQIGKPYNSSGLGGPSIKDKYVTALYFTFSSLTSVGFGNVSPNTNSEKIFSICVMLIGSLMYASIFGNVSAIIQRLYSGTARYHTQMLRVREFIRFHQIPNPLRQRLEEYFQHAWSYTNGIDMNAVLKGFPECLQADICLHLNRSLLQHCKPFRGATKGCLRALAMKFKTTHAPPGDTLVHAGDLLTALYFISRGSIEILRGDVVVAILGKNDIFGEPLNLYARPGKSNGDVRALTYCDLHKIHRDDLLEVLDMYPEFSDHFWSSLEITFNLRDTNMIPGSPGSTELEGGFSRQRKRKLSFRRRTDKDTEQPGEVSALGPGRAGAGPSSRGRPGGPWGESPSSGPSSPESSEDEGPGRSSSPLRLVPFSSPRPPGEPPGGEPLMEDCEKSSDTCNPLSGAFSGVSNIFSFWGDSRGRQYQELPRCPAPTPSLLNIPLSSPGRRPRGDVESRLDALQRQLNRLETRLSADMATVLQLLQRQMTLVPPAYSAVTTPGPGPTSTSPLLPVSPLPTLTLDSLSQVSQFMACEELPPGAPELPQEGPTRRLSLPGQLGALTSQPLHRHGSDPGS

[4] = DRUGMATRIX: Serotonin (5-Hydroxytryptamine) 5-HT3 radioligand binding (ligand: [3H] GR-65630); format: cell membranes, Membrane; conditions: hek293, Not Active = under 50% inhibition at 10 µM
[5] = biological target: Beta-1 adrenergic receptor (Homo sapiens, UniProt P08588); experiment: DRUGMATRIX: Adrenergic beta1 radioligand binding (ligand: [125I] Cyanopindolol); format: cell membranes, CHO-K1, Membrane; conditions: Not Active = under 50% inhibition at 10 µM
Chain of Beta-1 adrenergic receptor (P08588 whole entry): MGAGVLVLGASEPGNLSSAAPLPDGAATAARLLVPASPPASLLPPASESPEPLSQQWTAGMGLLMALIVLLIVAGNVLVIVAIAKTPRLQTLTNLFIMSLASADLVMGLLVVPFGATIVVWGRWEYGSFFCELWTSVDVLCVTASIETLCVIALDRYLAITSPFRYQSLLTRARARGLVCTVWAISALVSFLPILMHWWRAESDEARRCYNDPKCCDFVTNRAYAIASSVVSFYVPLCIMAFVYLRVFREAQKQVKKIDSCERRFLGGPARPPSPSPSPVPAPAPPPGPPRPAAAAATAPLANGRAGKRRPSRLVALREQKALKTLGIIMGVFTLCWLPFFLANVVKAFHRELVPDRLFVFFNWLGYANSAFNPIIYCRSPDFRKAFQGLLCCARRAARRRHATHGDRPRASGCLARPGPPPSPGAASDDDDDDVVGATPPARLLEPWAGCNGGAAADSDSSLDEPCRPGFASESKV

Acetylcholinesterase = Acetylcholinesterase (Homo sapiens, UniProt P22303); experiment: DRUGMATRIX: Acetylcholinesterase enzyme inhibition (substrate: acetylthiocholine); format: cell-based, HEK293; conditions: hek293; Not Active = under 50% inhibition at 10 µM
Chain of Acetylcholinesterase (P22303 whole entry): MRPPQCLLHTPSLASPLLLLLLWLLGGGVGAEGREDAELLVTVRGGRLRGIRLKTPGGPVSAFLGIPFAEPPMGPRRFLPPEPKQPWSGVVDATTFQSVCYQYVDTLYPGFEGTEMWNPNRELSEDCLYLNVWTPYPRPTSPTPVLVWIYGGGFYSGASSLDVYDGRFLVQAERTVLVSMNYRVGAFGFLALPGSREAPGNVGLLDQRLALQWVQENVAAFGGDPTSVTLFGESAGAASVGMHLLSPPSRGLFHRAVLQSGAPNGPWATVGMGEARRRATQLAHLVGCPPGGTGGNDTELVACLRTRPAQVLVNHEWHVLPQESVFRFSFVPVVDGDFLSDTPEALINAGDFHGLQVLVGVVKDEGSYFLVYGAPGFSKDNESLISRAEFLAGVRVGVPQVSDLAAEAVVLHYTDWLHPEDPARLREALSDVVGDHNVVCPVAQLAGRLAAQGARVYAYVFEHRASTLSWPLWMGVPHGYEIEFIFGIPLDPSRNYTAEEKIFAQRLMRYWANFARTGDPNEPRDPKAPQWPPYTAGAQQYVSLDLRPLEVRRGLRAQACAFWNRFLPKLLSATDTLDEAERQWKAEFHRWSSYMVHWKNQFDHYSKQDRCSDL

SMILES: CC(C)(C)NCC(O)c1cc(Cl)c(N)c(Cl)c1 (stereo not drawn) [CLENBUTEROL]
- IC50 [1]: Not Active
- IC50 [2]: Not Active
- IC50 (Estrogen receptor beta): Not Active
- IC50 [3]: Not Active
- Ki [3]: Not Active
- IC50 [4]: Not Active
- Ki [4]: Not Active
- IC50 ([5]; read-out: IC50): 120 nM
- Ki ([5]; read-out: Ki): 69 nM
- IC50 (Acetylcholinesterase): Not Active

SMILES: CC(O)CO (stereo not drawn) [PROPYLENE GLYCOL]
- IC50 [1]: Not Active
- IC50 [2]: Not Active
- IC50 [3]: Not Active
- Ki [3]: Not Active
- IC50 [4]: Not Active
- Ki [4]: Not Active
- IC50 ([5]; cho-k1): Not Active
- IC50 (Acetylcholinesterase): Not Active

SMILES: CC1Cc2ccccc2N1NC(=O)c1ccc(Cl)c(S(N)(=O)=O)c1 (stereo not drawn) [INDAPAMIDE]
- IC50 [1]: Not Active
- IC50 [2]: Not Active
- IC50 (Estrogen receptor beta): Not Active
- IC50 [3]: Not Active
- Ki [3]: Not Active
- IC50 [4]: Not Active
- Ki [4]: Not Active
- IC50 ([5]; cho-k1): Not Active
- IC50 (Acetylcholinesterase): Not Active

SMILES: c1ccc(Nc2ccc(Nc3ccccc3)cc2)cc1
- IC50 [1]: Not Active
- IC50 [2]: Not Active
- IC50 (Estrogen receptor beta): Not Active
- IC50 [3]: Not Active
- Ki [3]: Not Active
- IC50 [4]: Not Active
- Ki [4]: Not Active
- IC50 ([5]; cho-k1): Not Active
- IC50 (Acetylcholinesterase): Not Active

SMILES: COc1cc2nc(N3CCN(C(=O)C4COc5ccccc5O4)CC3)nc(N)c2cc1OC (stereo not drawn) [DOXAZOSIN]
- IC50 [1]: Not Active
- IC50 [2]: Not Active
- IC50 (Estrogen receptor beta): Not Active
- IC50 [4]: Not Active
- Ki [4]: Not Active
- IC50 (Acetylcholinesterase): Not Active

SMILES: CCOc1ccc(NC(C)=O)cc1 [PHENACETIN]
- IC50 [1]: Not Active
- IC50 [2]: Not Active
- IC50 (Estrogen receptor beta): Not Active
- IC50 [3]: Not Active
- Ki [3]: Not Active
- IC50 [4]: Not Active
- Ki [4]: Not Active
- IC50 ([5]; cho-k1): Not Active
- IC50 (Acetylcholinesterase): Not Active

SMILES: CN(C)CCCN1c2ccccc2Sc2ccc(Cl)cc21 [CHLORPROMAZINE]
- IC50 [1]: Not Active
- IC50 [2]: Not Active
- IC50 (Estrogen receptor beta): Not Active
- IC50 ([4]; read-out: IC50): 7360 nM
- Ki ([4]; read-out: Ki): 1660 nM
- IC50 ([5]; cho-k1): Not Active
- IC50 (Acetylcholinesterase): Not Active

SMILES: CC(C)[C@H]1C(=O)N2CCC[C@H]2[C@]2(O)O[C@](NC(=O)[C@@H]3C=C4c5cccc6[nH]cc(c56)C[C@H]4N(C)C3)(C(C)C)C(=O)N12 [ERGOCORNINE]
- IC50 [1]: Not Active
- IC50 [2]: Not Active
- IC50 (Estrogen receptor beta): Not Active
- IC50 [3]: Not Active
- Ki [3]: Not Active
- IC50 [4]: Not Active
- Ki [4]: Not Active
- IC50 ([5]; cho-k1): Not Active
- IC50 (Acetylcholinesterase): Not Active

SMILES: CC(C)(Oc1ccc(Cl)cc1)C(=O)O [CLOFIBRIC ACID]
- IC50 [1]: Not Active
- IC50 [2]: Not Active
- IC50 [3]: Not Active
- Ki [3]: Not Active
- IC50 [4]: Not Active
- Ki [4]: Not Active
- IC50 ([5]; cho-k1): Not Active
- IC50 (Acetylcholinesterase): Not Active

SMILES: Nc1nc2c(ncn2COCCO)c(=O)[nH]1 [ACYCLOVIR]
- IC50 [1]: Not Active
- IC50 [2]: Not Active
- IC50 [4]: Not Active
- Ki [4]: Not Active
- IC50 ([5]; cho-k1): Not Active
- IC50 (Acetylcholinesterase): Not Active

SMILES: CCOC(=O)C1=C(COCCN)NC(C)=C(C(=O)OC)C1c1ccccc1Cl (stereo not drawn) [AMLODIPINE]
- IC50 [1]: Not Active
- IC50 [2]: Not Active
- IC50 (Estrogen receptor beta): Not Active
- IC50 [4]: Not Active
- Ki [4]: Not Active
- IC50 ([5]; cho-k1): Not Active
- IC50 (Acetylcholinesterase): Not Active

SMILES: Cc1ccc(N(CC2=NCCN2)c2cccc(O)c2)cc1 [PHENTOLAMINE]
- IC50 [1]: Not Active
- IC50 [2]: Not Active
- IC50 (Estrogen receptor beta): Not Active
- IC50 [4]: Not Active
- Ki [4]: Not Active
- IC50 ([5]; cho-k1): Not Active
- IC50 (Acetylcholinesterase): Not Active

SMILES: Nc1nc(N)nc(-c2cc(Cl)ccc2Cl)n1.O=C(O)/C=C\C(=O)O [IRSOGLADINE MALEATE]
- IC50 [1]: Not Active
- IC50 [2]: Not Active
- IC50 [3]: Not Active
- Ki [3]: Not Active
- IC50 [4]: Not Active
- Ki [4]: Not Active
- IC50 (Acetylcholinesterase): Not Active

SMILES: Cc1ccc(-c2cc(C(F)(F)F)nn2-c2ccc(S(N)(=O)=O)cc2)cc1 [CELECOXIB]
- IC50 [1]: Not Active
- IC50 [2]: Not Active
- IC50 [3]: Not Active
- Ki [3]: Not Active
- IC50 [4]: Not Active
- Ki [4]: Not Active
- IC50 ([5]; cho-k1): Not Active
- IC50 (Acetylcholinesterase): Not Active

SMILES: CCC1(c2ccc(N)cc2)CCC(=O)NC1=O (stereo not drawn) [AMINOGLUTETHIMIDE]
- IC50 [1]: Not Active
- IC50 [2]: Not Active
- IC50 [3]: Not Active
- Ki [3]: Not Active
- IC50 [4]: Not Active
- Ki [4]: Not Active
- IC50 ([5]; cho-k1): Not Active
- IC50 (Acetylcholinesterase): Not Active
